Patent publication US20150151008A1, “Contrast Media Taste Masking Formulations” (HOVIONE SCIENTIA LIMITED, priority 2013, published 2015)

Experiments:
[1] = Osmotic pressure (osmolality) in an osmometer; assay type: physicochemical
Experimental: The osmotic pressure analysis measures the driving force of a solution to displace water molecules through a membrane from the medium in one side to the other. Considering the membrane is the esophageal epithelium, high osmolality means loss of water from the surrounding tissues to the GI tract. […] […] The osmolality of the powders produced through micro-encapsulation using spray congealing and spray drying were measured and compared to those of the pure contrast agents.

[2] = Particle size and morphology by PLM / SEM imaging; assay type: physicochemical; settings: raw, non-encapsulated iopamidol particles

| SMILES | mOsmol at 15 mg l/mL [1] | mOsmol at 300 mg l/mL [1] | Diameter of iopamidol particles [2] |
| --- | --- | --- | --- |
| CC(=O)N(CC(O)CO)c1c(I)c(C(=O)NCC(O)CO)c(I)c(C(=O)NCC(O)CO)c1I (centres unmarked) [Iohexol (raw), 1-N,3-N-bis(2,3-dihydroxypropyl)-5-[N-(2,3-dihydroxypropyl)acetamido]-2,4,6-triiodobenzene-1,3-dicarboxamide] | 36 mOsmol | 413 mOsmol |  |
| C[C@H](O)C(=O)Nc1c(I)c(C(=O)NC(CO)CO)c(I)c(C(=O)NC(CO)CO)c1I [Iopamidol (raw), 1-N,3-N-bis(1,3-dihydroxypropan-2-yl)-5-[(2S)-2-hydroxypropanamido]-2,4,6-triiodobenzene-1,3-dicarboxamide] | 30 mOsmol | 572 mOsmol | approximately 3 μm |
